Residues, ends and D or L forms follow the SMILES beside them. *: point of attachment. Cbz = O=C(OCc1ccccc1)*
Columns and labels:
[1] = tested on: HIF-1α; test: HIF-1α detection in cells exposed to DBM plus metals (summary statements); assay type: cell-based, human; details: cells exposed to DBM plus the metal; HEK 293 and HT144 for Zn^2+
From the text: In subsequent studies, similar data has been found for HEK 293 human embryonic kidney cells and HT144 melanoma cells treated with either DBM or Zn^2+. […] This finding appears to be unique to the combination of DBM with Zn^2+ since it was not observed in cells exposed to DBM plus other metals such as Fe^3+, Co^2+, Cd^2+, and Ni^2+. Furthermore, this unexpected reversal of the independent effects of DBM and Zn^2+ was not blocked by hypoxia. These observations are counterintuitive since inhibitors of HIF P4H should impede degradation of HIF-1α. Also, these two HIF P4H inhibitors appear to work in concert under inhibitory conditions to down-regulate HIF-1α with little effect on HIF-1α mRNA levels.
Basal levels of HIF-1α are low in cells exposed to ambient oxygen, yet under these conditions both DBM and Zn^2+ stabilize HIF-1α and cause the accumulation of HIF-1α protein (FIG. 15). It has been shown that this stabilizing effect on HIF-1α was itself reversed by the concomitant addition of Zn^2+ to DBM under ambient oxygen. […] This destabilizing effect appears unique to the combination of DBM plus Zn^2+ since it was not observed with other metals known to form chelates with DBM such as Fe^3+, Co^2+, Cd^2+ and Ni^2+. […] Though assessment of downstream effectors of HIF-1α (e.g., VEGF) was not included in the preliminary data, the effects of DBM and cobalt on VEGF in LNCaP human prostate cancer cells have been previously reported.

[2] = tested on: VEGF; details: LNCaP cells, ambient O2; cited from earlier work
[3] = tested on: HIF-1α; details: LNCaP cells, ambient O2; cited from earlier work
[4] = tested on: HIF-1α; test: Western blot analysis of HIF-1α in HEK 293 cells under ambient oxygen (normoxia); assay type: cell-based, human; details: HEK 293, ambient oxygen; for HIF-1α levels by Western blot: 1 hr, DBM 100 μM, Zn^2+ 25 μM to 100 μM, alone or combined; for HIF-1α by Western blot: agent(s) without further addition; for HIF-1α by Western blot in the presence of proteosome inhibitor MG-132: MG-132 added to the agent(s)
Experimental: The first unexpected finding was that the combination of DBM plus Zn^2+ reversed the induced stabilization of HIF-1α observed when the cells were exposed to either DBM or Zn^2+ alone under normoxic conditions (FIG. 15). […] HIF-1α was not detected at baseline by Western blot (FIG. 15, lane 1).
Proteosomal degradation of HIF-1α was assessed in HEK 293 embryonic kidney cells treated with DBM alone, Zn^2+ alone or the combination under ambient oxygen in the presence or absence of the proteosome inhibitor MG-132 (FIG. 18). […] (FIG. 18, lane 5). […] The HIF-1α isoforms are more clearly resolved on the gel from FIG. 18 than FIG. 15. This may be due to differences in the time the gels were run.

[5] = tested on: HIF-1α mRNA; test: Semiquantitative PCR (RT-PCR) of HIF-1α mRNA in HEK 293 cells under normoxia; assay type: cell-based, human; details: HEK 293, normoxia, 2 hours, serum free media
Experimental: The effects of DBM alone, Zn^2+ alone and DBM plus Zn^2+ on HIF-1α mRNA levels were assessed by semiquantitative PCR in extracts of HEK 293 kidney cells under normoxia for 2 hours in serum free media (FIG. 17). […] HIF-1αZ mRNA levels were not found to be increased (data not shown).

[6] = tested on: HIF-1α; test: Western blot analysis of HIF-1α in HT144 melanoma cells under hypoxia (1% O2); assay type: cell-based, human; details: for HIF-1α levels by Western blot: HT 144 melanoma cells, 2 hours under 1% O2
Experimental: (§1) HT 144 melanoma cells (FIG. 16 (A)) and HEK 293 embryonic kidney cells (FIG. 16 (B)) were incubated for 2 hours under 1% O2. HIF-1α was detected by Western blot at baseline ([…] lane 1).

[7] = tested on: HIF-1α; test: Western blot analysis of HIF-1α in HEK 293 cells under hypoxia (1% O2); assay type: cell-based, human; details: 2 hours under 1% O2, metal added together with DBM
Experimental: as §1

[8] = tested on: HIF-1α; test: Western blot analysis of HIF-1α in VHL (−/−) RCC-4 renal cell carcinoma cells under normoxia; assay type: cell-based, human; details: RCC-4 VHL (−/−), normoxic conditions; MG-132 for 1 hour
From the text: As expected, HIF-1α was detected by Western blot under normoxic conditions (FIG. 19, lane 1). […] These experiments have not been performed as yet in RCC4 cells with DBM alone or in RCC4 cells transfected with pVHL.

[9] = tested on: HIF-1αZ; details: cited from earlier work
[10] = tested on: kidney cancer; details: patients with metastatic disease, high doses; cited from earlier work

## [Cd+2] [Cd^2+]
[1]
  Loss of HIF-1α (no HIF-1α detected) when metal is combined with DBM: not observed

## [Co+2] [Co^2+, reference compound]
[1]
  Loss of HIF-1α (no HIF-1α detected) when metal is combined with DBM: not observed
[2]
  VEGF levels: rapidly increase
[3]
  HIF-1α levels: rapidly increase

## O=C(CC(=O)c1ccccc1)c1ccccc1 [DBM, 1,3-diphenylpropane-1,3-dione]
[4]
  HIF-1α levels by Western blot: significant increase in HIF-1α levels
  HIF-1α by Western blot in the presence of proteosome inhibitor MG-132: did not stabilize these other forms of HIF-1α
[4]; 2 hours
  HIF-1α by Western blot: readily detected
[2]
  VEGF levels: rapidly increase
[3]
  HIF-1α levels: rapidly increase
[5]
  HIF-1α mRNA levels by semiquantitative PCR: not significantly different from baseline
[6]
  HIF-1α levels by Western blot: significantly increased the levels of HIF-1α

## [Fe+3] [Fe^3+]
[7]
  Effect of metal added to DBM on HIF-1α levels by Western blot: decreased slower migrating isoforms of HIF-1α
[1]
  Loss of HIF-1α (no HIF-1α detected) when metal is combined with DBM: not observed
[6]; HT 144 cells, 2 hours under 1% O2, metal added together with DBM
  Effect of metal added to DBM on HIF-1α levels by Western blot: did not significantly alter the effect of DBM on HIF-1α levels

## CC(C)C[C@@H](C=O)NC(=O)[C@H](CC(C)C)NC(=O)[C@H](CC(C)C)NC(=O)OCc1ccccc1 [MG-132, reference compound] (Cbz-Leu-Leu-Leu-aldehyde)
[4]; 2 hours
  HIF-1α by Western blot: accumulation of a broad range of proteins that possibly represent ubiquitinated forms of HIF-1α
[8]
  HIF-1α by Western blot: Stabilization of HIF-1α was enhanced

## [Ni+2] [Ni^2+]
[1]
  Loss of HIF-1α (no HIF-1α detected) when metal is combined with DBM: not observed

## [Zn+2] [Zn^2+]
[4]
  HIF-1α levels by Western blot: increased HIF-1α levels in a dose dependent manner
  HIF-1α by Western blot in the presence of proteosome inhibitor MG-132: did not stabilize these other forms of HIF-1α
[4]; 2 hours
  Molecular weight of stabilized HIF-1α isoforms: higher molecular weight than those induced by DBM
  HIF-1α by Western blot: readily detected
[9]
  Zn^2+ concentration at which HIF-1αZ exhibits loss of exon 12: above 100 μM
[5]
  HIF-1α mRNA levels by semiquantitative PCR: not significantly different from baseline
[6]
  HIF-1α levels by Western blot: decreased the more rapidly migrating isoforms of HIF-1α

## bevacizumab: humanized monoclonal antibody specific for VEGF
[10]
  Clinical responses: Clinical responses have been observed

From patent US20070213312A1, “Hif-1 Inhibitors and Methods of Use Thereof” (priority 2003, published 2007)
